Six compounds from patent US7427625B2, “Substituted thiatriazaacenaphthylene-6-carbonitrile kinase inhibitors” (Janssen Pharmaceutica, N.V., priority 2006, dated 2008) can be followed below.

The target in assay [1] is T1, VEGF-R2 (Rattus norvegicus, UniProt O08775).
T1 construct: polyhistidine (N)
In words: VEGF-R2 Screening Assay. The assay is classed as biochemical.

Assay [2] deals with T2, Aurora-A (Mus musculus, UniProt P97477).
T2 construct: followed by the full length protein encoding the murine Aurora-A; polyhistidine (N); made in house; host or cells: sf9 insect cells
T2 sequence (P97477 1-395): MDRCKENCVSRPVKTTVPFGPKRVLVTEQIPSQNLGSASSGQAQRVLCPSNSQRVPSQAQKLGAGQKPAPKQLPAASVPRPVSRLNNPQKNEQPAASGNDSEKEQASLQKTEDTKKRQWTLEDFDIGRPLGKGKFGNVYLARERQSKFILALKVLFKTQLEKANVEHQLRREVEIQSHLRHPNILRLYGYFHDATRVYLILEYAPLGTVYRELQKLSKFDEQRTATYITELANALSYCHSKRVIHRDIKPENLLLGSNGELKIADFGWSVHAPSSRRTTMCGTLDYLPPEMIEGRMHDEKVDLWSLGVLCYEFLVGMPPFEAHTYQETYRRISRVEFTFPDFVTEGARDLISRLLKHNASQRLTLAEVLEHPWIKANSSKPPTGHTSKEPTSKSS
In words: Aurora-A Screening Assay. The assay is classed as biochemical, murine.

The test system of assay [3] is A375 malignant melanoma. In words: Cell Proliferation Inhibition Assay (14C-thymidine incorporation), A375. The assay is classed as cell-based. The settings on record: Homo sapiens, A-375. As to the method: (§1) The ability of a test compound to inhibit unregulated cell proliferation was determined by measuring incorporation of ^14C-labelled thymidine into newly synthesized DNA within cell lines derived from carcinomas originating from several tissues. Accordingly, the anti-proliferative effect of a compound on cells with a variety of phenotypes may be determined.
(§2) Carcinoma cell lines include those such as HeLa cervical adenocarcinoma (American Type Culture Collection (ATCC), Virginia, Cat. #CCL-2), A375 malignant melanoma (ATCC CRL-1619), SK-OV-3 ovarian adenocarcinoma (ATCC HTB-77), HCT-116 colon carcinoma (CCL-247), PC-3 prostate adenocarcinoma (ATCC CRL-1435), and MDA-MB-231 (Xenogen Corp.)
(§3) The carcinoma cells were trypsinized and counted. The cells (3000-8000 count) were added to each well of a 96-well CytoStar tissue culture treated scintillating microplate (Amersham #RPNQ0160) in complete medium (100 μL) and the plate was then incubated in complete medium for 24 hrs at 37° C. in an […] atmosphere containing 5% CO2. Test compound (1 μL) in 100% DMSO was added to the plate test-wells with DMSO only added to control-wells. The plate was incubated in complete medium for a second 24 hr period at 37° C. in an atmosphere containing 5% CO2.
(§4) An aliquot of a solution of Methyl ^14C-thymidine ([…]) (NEN #NEC568 or Amersham #CFA532) and complete medium (20 uL to provide 0.2 μCi/well) was then added to each well and the plate was incubated for a third 24 hr period at 37° C. in an atmosphere containing 5% CO2. The plate contents were then discarded, the plate was washed twice with PBS (200 μL) and then PBS (200 μL) was added to each well. The plate was sealed and the degree of methyl ^14C-thymidine incorporation was quantified on a Packard Top Count.
In general terms: Incorporation of labelled thymidine or its analogues reports DNA synthesis.

Assay [4] concerns HCT-116 colon carcinoma. The experiment in a line: Cell Proliferation Inhibition Assay (14C-thymidine incorporation), HCT116. It counts as cell-based. The settings on record: Homo sapiens. The method, then:
as §1, §2, §3, §4

For assay [5], the system named is HeLa cervical adenocarcinoma. In words: Cell Proliferation Inhibition Assay (14C-thymidine incorporation), HeLa. It counts as cell-based. Conditions: Homo sapiens. The method, then: as §1, §2, §3, §4

A value given as a limit tells only on which side of the number the result lay.

T1 sequence (O08775 786-1343): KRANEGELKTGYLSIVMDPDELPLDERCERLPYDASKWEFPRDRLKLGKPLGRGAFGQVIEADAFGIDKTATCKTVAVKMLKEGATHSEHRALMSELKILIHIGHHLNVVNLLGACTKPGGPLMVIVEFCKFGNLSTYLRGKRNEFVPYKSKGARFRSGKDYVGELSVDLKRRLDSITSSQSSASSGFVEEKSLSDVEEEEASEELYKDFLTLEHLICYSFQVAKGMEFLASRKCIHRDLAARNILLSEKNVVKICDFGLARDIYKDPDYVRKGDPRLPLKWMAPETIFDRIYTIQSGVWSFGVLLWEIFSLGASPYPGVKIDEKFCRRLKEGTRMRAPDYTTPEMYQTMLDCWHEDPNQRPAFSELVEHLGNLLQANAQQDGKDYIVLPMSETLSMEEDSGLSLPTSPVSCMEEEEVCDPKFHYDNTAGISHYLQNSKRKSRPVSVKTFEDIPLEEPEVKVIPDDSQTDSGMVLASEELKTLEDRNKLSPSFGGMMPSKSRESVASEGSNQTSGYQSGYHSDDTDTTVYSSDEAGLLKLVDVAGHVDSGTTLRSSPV

As for `N#Cc1cnc2sc(C(=O)Nc3ccc(CN4CCCCC4)cc3)c3c2c1N(c1ccc(Oc2ccccc2)cc1)C(=O)N3` [Cpd 49, 6-cyano-4-oxo-5-(4-phenoxy-phenyl)-4,5-dihydro-3H-1-thia-3,5,8-triaza-acenaphthylene-2-carboxylic acid (4-piperidin-1-ylmethyl-phenyl)-amide], the IC50 in assay [1] is above 100 µM; in assay [2] it was above 100 µM; in assay [3], 1.38 µM; in assay [4], 0.985 µM; in assay [5] it was 2.19 µM.

Turning to `COc1cc(NC(=O)c2sc3ncc(C#N)c4c3c2NC(=O)N4c2ccc(Oc3ccccc3)cc2)ccc1CN1CCOCC1` [Cpd 45, 6-cyano-4-oxo-5-(4-phenoxy-phenyl)-4,5-dihydro-3H-1-thia-3,5,8-triaza-acenaphthylene-2-carboxylic acid (3-methoxy-4-morpholin-4-ylmethyl-phenyl)-amide], the IC50 in assay [1] was above 100 µM; in assay [2] it was above 100 µM; in assay [3], above 10 µM; in assay [4] it was above 10 µM; in assay [5], above 100 µM.

Take `CN(C)C1CCN(Cc2ccc(NC(=O)c3sc4ncc(C#N)c5c4c3NC(=O)N5c3c(Cl)ccc4c3OCO4)cc2)CC1` [Cpd 42, 5-(5-chloro-benzo[1,3]dioxol-4-yl)-6-cyano-4-oxo-4,5-dihydro-3H-1-thia-3,5,8-triaza-acenaphthylene-2-carboxylic acid [4-(4-dimethylamino-piperidin-1-ylmethyl)-phenyl]-amide]: the half-maximal inhibitory concentration (IC50) in assay [1] was above 100 µM; in assay [2], above 10 µM; in assay [3], above 100 µM; in assay [4], above 100 µM; in assay [5], above 100 µM.

Turning to `CC(C)(C)OC(=O)NC1CCN(Cc2ccc(NC(=O)c3sc4ncc(C#N)c5c4c3NC(=O)N5c3c(Cl)ccc4c3OCO4)cc2)CC1` [Cpd 46, [1-(4-{[5-(5-chloro-benzo[1,3]dioxol-4-yl)-6-cyano-4-oxo-4,5-dihydro-3H-1-thia-3,5,8-triaza-acenaphthylene-2-carbonyl]-amino}-benzyl)-piperidin-4-yl]-carbamic acid tert-butyl ester], the IC50 in assay [1] was above 100 µM; in assay [2], above 1 µM; in assay [3] it was above 10 µM; in assay [4] it was above 10 µM; in assay [5], above 10 µM.

In the case of `CN(C)C1CCN(C(=O)c2sc3ncc(C#N)c4c3c2NC(=O)N4c2c(Cl)ccc3c2OCO3)CC1` [Cpd 41, 5-(5-chloro-benzo[1,3]dioxol-4-yl)-2-(4-dimethylamino-piperidine-1-carbonyl)-4-oxo-4,5-dihydro-3H-1-thia-3,5,8-triaza-acenaphthylene-6-carbonitrile], the IC50 in assay [1] was above 100 µM; in assay [2], above 10 µM; in assay [3] it was above 100 µM; in assay [4], above 10 µM; in assay [5], above 100 µM.

Regarding `N#Cc1cnc2sc(C(=O)Nc3ccc(CCN4CCCCC4)cc3)c3c2c1N(c1ccc(Oc2ccccc2)cc1)C(=O)N3` [Cpd 48, 6-cyano-4-oxo-5-(4-phenoxy-phenyl)-4,5-dihydro-3H-1-thia-3,5,8-triaza-acenaphthylene-2-carboxylic acid [4-(2-piperidin-1-yl-ethyl)-phenyl]-amide], the IC50 is above 100 µM in assay [1]; above 100 µM in assay [2]; 8.29 µM in assay [3]; 15.8 µM in assay [4]; above 10 µM in assay [5].

A word on the IC50: it is the concentration that gives 50% inhibition.
